What was measured:
[1] = Vasorelaxant activity against depolarization-induced basilar artery constriction in white rabbit; format: functional, tissue-based, Oryctolagus cuniculus
[2] = Vasorelaxant activity against depolarization-induced carotid artery constriction in white rabbit; format: functional, tissue-based, Oryctolagus cuniculus

EC50 [1] | EC50 [2] | Compound
3720 nM | 14.5 µM | CC(=O)CC/C=C(\C)CCC/C(C)=C\C(=O)CC(C)C
1220 nM | 13.7 µM | CC(=O)CC/C=C(\C)CCC/C(C)=C/C(=O)CC(C)C

From ChEMBL document CHEMBL1152206, “Vasodilatation effect of farnesylacetones, active constituents of Sargassum siliquastrum, on the basilar and carotid arteries of rabbits” (Bioorg Med Chem Lett, 2008)
